Values of other authors, collected in patent US12544394B2, “Compositions and methods for treatment of fibrosis” (priority 2017, dated 2026).

What was measured:
steatosis = settings: vitamin E 400-1000 IU/day for 4-10 months
NASH = settings: patients with biopsy proven NASH, oral vitamin E supplementation
[1] = humans, oral route of administration
liver fibrosis = settings: DLPC fed in chow (U.S. Pat. No. 5,284,835)

| SMILES | mean AST levels after treatment (steatosis; decreased from 104.+−.61 IU/L, P<0.002) | mean ALT levels after treatment (steatosis; decreased from 175.+−.106 IU/L, P<0.01) | liver histology outcome (NASH) | clinical effect [1] | liver fibrosis (liver fibrosis) |
| --- | --- | --- | --- | --- | --- |
| Cc1c(C)c2c(c(C)c1O)CC[C@@](C)(CCC[C@H](C)CCC[C@H](C)CCCC(C)C)O2 [vitamin E, Alpha-tocopherol] | 33.+−.11 IU/L | 40.+−.26 IU/L | improvement in hepatic steatosis and lobular inflammation but not portal inflammation or fibrosis | – | – |
| CCCCCCCCCCCC(=O)OC[C@H](COP(=O)([O-])OCC[N+](C)(C)C)OC(=O)CCCCCCCCCCC [DLPC, 1,2-dilauroyl-sn-glycero-3-phosphocholine] | – | – | – | no significant clinical effect | slow liver fibrosis |
